The values that follow come from patent US7041665B2, “Benzoxazinone derivatives, their preparation and use as medicaments” (Laboratories del Dr. Esteve, S.A., priority 2002, dated 2006).

Structures can show the parent of a compound that is named as a salt. Where only a bound is given, the exact number is not on record here.

As a reminder, the Ki is a measure of affinity in units of concentration, obtained from inhibition or displacement. Lower therefore signals a stronger hold on the target. For orientation: melting point means the temperature, or range, at which the solid turns liquid.

Data set [1] relates to male Wistar rats. The data set can be described thus: Nocturnal ingestion test. The following applies: intra-peritoneal, compared to control group. It is filed as in vivo, rat. The procedure: Measurement of the Intake in Animal Models
The animals employed were male Wistar rats (200–270 g) supplied by Harlan, S. A. The acclimatization period in our stable before being used in the experimental trials was at least 5 days. In this time the animals were stabled in groups of 5 in translucid cages, with water and food ad libitum. The animals were acclimatized to individual stabling at least 24 hours before conducting the experiment.
The test is carried out in the animal's cage in order to minimize the stress implied in a change of cage, which could affect the intake. Water and food are available at all times ad libitum. Immediately before turning out the lights in the room the animals are weighed and randomly assigned to a treatment group (vehicle or product under study). Immediately after the administration the rats are returned to their cages, where a known amount of food had been placed. The following morning the amount of food remaining in each cage was weighed, and the animals were again weighed.
References: Ants Kask et al., Journal of Pharmacology, 414 (2001) 215–224; Andrew V. Turnbull et al., Diabetes, Vol. 51, August 2002
Effect of Some Compounds of the Invention on Nocturnal Ingestion in Male Wistar Rats (Intra-Peritoneal Administration)

Data set [2] deals with T1, Neuropeptide Y5 (Rattus norvegicus, UniProt Q63634).
T1 construct: their brains are rapidly removed and the cortex is dissected; from tissue; host or cells: rat brain cortex membranes (male Wistar rats)
T1 sequence (Q63634 1-445): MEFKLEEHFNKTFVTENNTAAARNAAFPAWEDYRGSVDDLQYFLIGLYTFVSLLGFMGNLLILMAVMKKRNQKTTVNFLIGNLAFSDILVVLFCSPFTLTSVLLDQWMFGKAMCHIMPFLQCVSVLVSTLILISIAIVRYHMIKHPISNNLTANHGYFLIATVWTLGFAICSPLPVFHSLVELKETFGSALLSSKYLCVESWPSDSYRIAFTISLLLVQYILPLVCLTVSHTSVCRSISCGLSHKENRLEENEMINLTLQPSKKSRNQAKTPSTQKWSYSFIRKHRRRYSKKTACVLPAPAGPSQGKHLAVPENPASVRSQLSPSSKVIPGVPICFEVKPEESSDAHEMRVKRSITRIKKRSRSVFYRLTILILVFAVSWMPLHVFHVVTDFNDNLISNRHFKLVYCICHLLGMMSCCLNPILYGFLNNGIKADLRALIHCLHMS
The data set can be described thus: Binding to Neuropeptide Y5, [125I]-PYY(3-36), BIBP 3226 sat., rat cortex membranes. The following applies: radioligand [125I]-PYY3-36, 1 μM BIBP 3226 to saturate Y1, 25° C., 120 minutes. On the procedure: Binding to Neuropeptide Y5
(§1) Male Wistar rats are sacrificed by decapitation, their brains are rapidly removed and the cortex is dissected. Homogenization is performed in cold conditions in the buffer: 120 mM NaCl, 4.7 mM KCl, 2.2 mM CaCl2, 1.2 mM KH2PO4, 1.2 mM MgSO4, 25 mM NaHCO3, 5.5 mM glucose, pH 7.4, by means of a Ultra-Turrax homogenizer for 15 seconds at 13,500 rpm. The ratio between fresh tissue weight and buffer volume is of twenty times. The membrane is centrifuged for 10 min at 48,000 g. The supernatant is discarded and the pellet is washed, resuspended and recentrifuged three more times. The final membrane resuspension is performed in the buffer: 120 mM NaCl, 4.7 mM KCl, 2.2 mM CaCl2, 1.2 mM KH2PO4, 1.2 mM MgSO4, 25 mM NaHCO3, 5.5 mM glucose, 0.1% BSA, 0.05% bacitracin, pH 7.4, at a ratio of 20 ml/g fresh tissue. […] Incubation volume: 500 μl. […] The filters are cold-washed three times with two milliliters of the same buffer used in homogenization. […] Non-specific binding is determined in the presence of 1 μM of pNPY (porcin Neuropeptide Y). The assays are performed in triplicate.

Data set [3] has as its target T2, Neuropeptide Y2 (Rattus norvegicus, UniProt Q9ERC0).
T2 construct: their brains are rapidly removed and the hypoccampus is dissected; from tissue; host or cells: rat hippocampus membranes (male Wistar rats)
T2 sequence (Q9ERC0 1-381): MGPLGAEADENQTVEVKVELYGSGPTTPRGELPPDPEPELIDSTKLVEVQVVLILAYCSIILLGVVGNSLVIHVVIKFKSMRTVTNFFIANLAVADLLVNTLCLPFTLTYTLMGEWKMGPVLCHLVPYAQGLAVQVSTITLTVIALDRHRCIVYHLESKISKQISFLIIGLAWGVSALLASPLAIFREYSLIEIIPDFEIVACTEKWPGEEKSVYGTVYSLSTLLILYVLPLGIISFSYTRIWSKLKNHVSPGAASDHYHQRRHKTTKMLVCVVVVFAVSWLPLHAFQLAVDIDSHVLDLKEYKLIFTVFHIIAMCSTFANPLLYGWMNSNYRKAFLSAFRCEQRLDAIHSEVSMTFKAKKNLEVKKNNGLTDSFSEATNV
Nature of the data set: Binding to Neuropeptide Y2, [125I]-PYY(3-36), rat hypoccampus membranes. Conditions: radioligand [125I]-PYY3-36, 25° C., 150 minutes. On the procedure:
Binding to Neuropeptide Y2
as §1, with “the hypoccampus” for “the cortex”, “of ten” for “of twenty”, “recentrifuged two” for “recentrifuged three”, “times.” for “times. The final membrane resuspension is performed in the buffer: 120 mM NaCl, 4.7 mM KCl, 2.2 mM CaCl2, 1.2 mM KH2PO4, 1.2 mM MgSO4, 25 mM NaHCO3, 5.5 mM glucose, 0.1% BSA, 0.05% bacitracin, pH 7.4, at a ratio of 20 ml/g fresh tissue.”, “with three” for “with two”

For the compound `CCn1c2ccccc2c2cc(NC(=O)CN3CCC(N4C(=O)OCc5ccccc54)CC3)ccc21` [Example 18, 1-{1-[N-(9-ethyl-9H-carbazol-3-yl)aminocarbonylmethyl]-4-(piperidinyl)}-1,4-dihydro-2H-3,1-benzoxazin-2-one hydrochloride], in data set [1] (40 mg/kg), the “Effect on nocturnal ingestion: body weight of the animals” value (“Effect … of the animals” for short) is reported as “reduces body” and the “Effect on nocturnal ingestion: food intake” value (“Effect … food intake” below) was “Reduces food intake”.

Regarding `O=C(CN1CCC(N2C(=O)OCc3ccccc32)CC1)Nc1ccc2c(c1)CCCC2=O` [Example 6, 1-{1-[N-(1-oxo-1,2,3,4-tetrahydronaphthalen-6-yl)aminocarbonylmethyl]-4-(piperidinyl)}-1,4-dihydro-2H-3,1-benzoxazin-2-one hydrochloride], the Ki in data set [2] is 18.4 nM; in data set [3], greater than 1000 nM.

For the compound `O=C(CN1CCC(N2C(=O)OCc3ccccc32)CC1)Nc1ccc2c(c1)-c1ccccc1C2=O` [Example 3, 1-{1-[N-(9-oxo-9H-fluoren-3-yl)aminocarbonylmethyl]-4-(piperidinyl)}-1,4-dihydro-2H-3,1-benzoxazin-2-one hydrochloride], the Ki in data set [2] worked out at 6.4 nM.

For “1-{1-[N-(9-oxo-9H-fluoren-3-yl)aminocarbonylmethyl]-4-(piperidinyl)}-8-methyl-1,4-dihydro-2H-3,1-benzoxazin-2-one hydrochloride [Example 35]”, in data set [1] (20 mg/kg), the “Effect … of the animals” value is on record as “reduces body” and the “Effect … food intake” value is listed as “Reduces food intake”.

On to `Cc1ccc2c(c1)COC(=O)N2C1CCN(CC(=O)Nc2ccc3c(c2)-c2ccccc2C3=O)CC1` [Example 20, 1-{1-[N-(9-oxo-9H-fluoren-3-yl)aminocarbonylmethyl]-4-(piperidinyl)}-6-methyl-1,4-dihydro-2 H-3,1-benzoxazin-2-one hydrochloride], for which, in data set [2], the Ki was found to be 0.87 nM. For the same compound, in data set [1] (40 mg/kg), the “Effect … of the animals” value is “reduces body” and the “Effect … food intake” value is given as “Reduces food intake”.

Take `Cc1ccc2c(c1)COC(=O)N2C1CCN(CC(=O)Nc2ccc3c(c2)-c2ccccc2C3=O)CC1` (as salt: HCl) [Example 20, 1-{1-[N-(9-oxo-9H-fluoren-3-yl)aminocarbonylmethyl]-4-(piperidinyl)}-6-methyl-1,4-dihydro-2 H-3,1-benzoxazin-2-one hydrochloride]: the melting point lay within 250 to 252 °C.

Consider `O=C(CN1CCC(N2C(=O)OCc3ccccc32)CC1)Nc1ccc2c(c1)CCCC2=O` (as salt: HCl) [Example 6, 1-{1-[N-(1-oxo-1,2,3,4-tetrahydronaphthalen-6-yl)aminocarbonylmethyl]-4-(piperidinyl)}-1,4-dihydro-2H-3,1-benzoxazin-2-one hydrochloride], for which the melting point lay in the range of 260 to 264 °C.

For `O=C(CN1CCC(N2C(=O)OCc3ccccc32)CC1)Nc1ccc2c(c1)-c1ccccc1C2=O` (as salt: HCl) [Example 3, 1-{1-[N-(9-oxo-9H-fluoren-3-yl)aminocarbonylmethyl]-4-(piperidinyl)}-1,4-dihydro-2H-3,1-benzoxazin-2-one hydrochloride], the melting point was greater than 275 °C.
